Assay results from US20120078527A1, “KIT AND METHOD FOR PREDICTING SENSITIVITY OF GASTRIC CANCER PATIENT TO ANTI-CANCER AGENT” (SAMSUNG ELECTRONICS CO., LTD., priority 2010, published 2012).

Test system: advanced (terminal) gastric cancer patients
Assay: Change in tumor size after cisplatin-based chemotherapy in gastric cancer patients
Format: in vivo, human
Conditions: population of 151 advanced (terminal) gastric cancer patients; cisplatin-based chemotherapy per NCCN guidelines after palliative surgical resection; judged by changes in tumor size
Method: A population of 151 advanced (terminal) gastric cancer patients who were treated with cisplatin-based chemotherapy (in Samsung Medical Center, Seoul, Korea) after palliative surgical resection were selected to test for sensitivity to the anti-cancer agent. That is, the anti-cancer agent (cisplatin) was administered to the patients according to National Comprehensive Cancer Network (NCCN) guidelines, and changes in tumor size after the administration of the anti-cancer agent were measured to determine whether the anti-cancer therapy was effective. Then, the patients were grouped into two groups: one group of 103 patients for which the anti-cancer therapy was effective (responders), and the other group of 48 patients for which the anti-cancer therapy was not effective (nonresponders). In addition, to identify SNPs associated with response or nonresponse to the anti-cancer agent, DNA of each of the patients was extracted from gastric tumor tissue removed from the patient using QIAamp DNA Mini and blood Mini kits.

N.N.[Cl][Pt][Cl] [cisplatin]
patients for which the anti-cancer therapy was effective (responders): 103 patients
patients for which the anti-cancer therapy was not effective (nonresponders): 48 patients
